These results are taken from ChEMBL document CHEMBL1759872, “Small-molecule probe using dual signals to monitor leucine aminopeptidase activity” (Bioorg Med Chem Lett, 2011).

One data set is filed under the species Sus scrofa. Nature of the data set: Activity at pig kidney LAP after 40 mins by Michaelis-Menten equation. The format is tissue-based.
The subject of data set [1] is HCT-116. Nature of the data set: Drug uptake in human HCT116 cells at 20 uM after 20 mins by DAPI staining based microscopic analysis in presence of bestatin. The note with it: hct-116, 20 min. The format is ADME, cell-based.
The subject of data set [2] is HCT-116. Nature of the data set: Drug uptake in human HCT116 cells at 20 uM after 20 mins by DAPI staining based microscopic analysis. Format: ADME, cell-based. As to conditions: hct-116, 20 min; call rule not given here.
The nature of data set [3]: Competitive inhibition of pig kidney LAP activity using DCDHF-Leu as substrate after 10 mins by Michaelis-Menten equation.
A short description of data set [4]: Competitive inhibition of pig kidney LAP activity using N-(6-Methoxypyridine-3-yl), (S)-2-amino-4-methylpentanamide as substrate after 10 mins by Michaelis-Menten equation.
Data set [5] in a line: Competitive inhibition of pig kidney LAP activity using l-Leucine-p-nitroanilide as substrate after 10 mins by Michaelis-Menten equation.

Regarding `CC(C)C[C@H](N)C(=O)Nc1ccc([N+](=O)[O-])cc1`, in the data set filed under Sus scrofa, the Km (as a rule, the substrate concentration at which the rate is half of its maximum) is 3000 µM and the Vmax (in general, the rate approached at saturating substrate) was 3.9 µmol/min/mg.

Take `CC(C)C[C@H](N)C(=O)Nc1ccc(/C=C/C2=C(C#N)C(=C(C#N)C#N)OC2(C)C)cc1`: the Drug uptake result in the data set with HCT-116 [1] is recorded as “Not Active”. Also, in the data set on HCT-116 [2], the “fold change (FC)” value was determined as 6. For the same compound, in the data set filed under Sus scrofa, the Km came to 8.87 µM and the Vmax came to 6.64 µmol/min/mg.

For `CC(C)C[C@H](NC(=O)[C@@H](O)[C@H](N)Cc1ccccc1)C(=O)O` [UBENIMEX], the IC50 (usually the midpoint of a concentration-inhibition curve) came out at 4.41 µM in data set [3], 7 µM in data set [4] and 25 µM in data set [5].

Regarding `CC1(C)OC(=C(C#N)C#N)C(C#N)=C1/C=C/c1ccc(N)cc1`, the Drug uptake result in the data set with HCT-116 [2] is given as “Active”.

In the case of `COc1ccc(NC(=O)[C@@H](N)CC(C)C)cn1`, in the data set listed under Sus scrofa, the Michaelis-Menten constant (Km) was 65 µM and the Vmax amounted to 7.7 µmol/min/mg.
